Measured values reported in ChEMBL document CHEMBL1201862, “PubChem BioAssay data set” (2004).
Activity calls are given as the source filed them.

How the values were obtained:
[1] = target: Mannose-6-phosphate isomerase (Homo sapiens, UniProt P34949); test: MPI inhibition at elevated mannose 6-phosphate – biochemical, fluorescence intensity, high mannose 6-phosphate, primary screen (AID 1220)
[2] = Trypanosoma cruzi growth suppression in host cells – NIH3T3 host cells, beta-gal luminescence, confirmation (AID 2044); assay type: functional, cell-based;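 also: intracellular parasites grown in NIH/3T3 mouse fibroblasts as host cells; luminescent beta-galactosidase reporter signal from transgenic T. cruzi replicating inside host cells; inhibitors lower the luminescence signal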
[3] = Luminescence Cell-Based Secondary HTS screen to identify cytotoxic compounds of NIH3T3 cells. [Related pubchem assays: 1885, 1968 ]; assay type: functional
[4] = NIH3T3 cell viability loss – ATP luminescence, mouse fibroblasts, counter-screen, dose response (AID 2010); assay type: functional, cell-based;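 also: cells exposed to compound for about 90 hours before reading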
[5] = viability inhibitors of stage V gametocytes – luminescence, dose response (AID 1117278); assay type: functional, cell-based;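 also: gametocytes exposed to compound for 24 hours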
[6] = viability loss in human Jurkat cells – cell-based, luminescence, cytotoxicity control for P. falciparum gametocyte viability project, dose response (AID 1117277); assay type: functional;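 also: potency reflects loss of cellular ATP meaning fewer viable cells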
[7] = target: Solute carrier family 12 member 2/member 5 (Homo sapiens, UniProt P55011+Q9H2X9); test: KCC2 and NKCC1 inhibition by rubidium flux, cell-based, NKCC1 counter-screen (AID 1734); assay type: functional, HEK293
Ephrin type-A receptor 4 = Ephrin type-A receptor 4 (Mus musculus, UniProt Q03137); test: EphA4 ligand-binding antagonists – biochemical, colorimetric, mouse EphA4, primary screen (AID 689); assay type: functional
Ephrin type-A receptor 4, sequence (Q03137 whole entry): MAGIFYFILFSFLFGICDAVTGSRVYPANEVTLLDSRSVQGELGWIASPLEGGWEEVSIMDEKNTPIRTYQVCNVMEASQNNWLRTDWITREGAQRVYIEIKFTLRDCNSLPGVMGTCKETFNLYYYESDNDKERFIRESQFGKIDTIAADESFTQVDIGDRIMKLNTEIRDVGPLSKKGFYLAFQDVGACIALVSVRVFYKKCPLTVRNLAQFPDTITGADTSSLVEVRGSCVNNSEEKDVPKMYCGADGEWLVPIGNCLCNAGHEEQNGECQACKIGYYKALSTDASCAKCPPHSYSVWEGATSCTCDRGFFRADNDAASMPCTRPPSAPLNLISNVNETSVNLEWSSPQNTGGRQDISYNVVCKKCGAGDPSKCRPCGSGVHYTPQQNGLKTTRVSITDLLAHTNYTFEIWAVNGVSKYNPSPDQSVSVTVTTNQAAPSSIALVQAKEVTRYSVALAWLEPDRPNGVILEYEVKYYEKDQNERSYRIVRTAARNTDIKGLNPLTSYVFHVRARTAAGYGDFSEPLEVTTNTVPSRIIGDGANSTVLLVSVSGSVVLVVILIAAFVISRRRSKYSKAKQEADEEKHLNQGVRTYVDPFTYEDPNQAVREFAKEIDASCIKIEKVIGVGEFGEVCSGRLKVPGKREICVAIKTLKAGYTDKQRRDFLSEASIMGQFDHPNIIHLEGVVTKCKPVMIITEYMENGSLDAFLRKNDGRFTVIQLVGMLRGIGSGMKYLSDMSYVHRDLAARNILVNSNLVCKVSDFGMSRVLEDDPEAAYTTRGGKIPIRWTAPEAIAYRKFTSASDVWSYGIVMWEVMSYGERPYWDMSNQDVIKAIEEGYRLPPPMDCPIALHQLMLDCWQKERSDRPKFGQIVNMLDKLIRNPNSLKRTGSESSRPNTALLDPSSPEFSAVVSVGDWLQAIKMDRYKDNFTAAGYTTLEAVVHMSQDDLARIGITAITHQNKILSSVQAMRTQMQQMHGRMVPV

HEK293 [8] = test: inhibition of NOD1-driven NF-kB reporter – cell-based, luminescence, uHTS, primary screen (AID 1578); assay type: functional; settings: Homo sapiens
HEK293 [9] = test: cells; assay type: functional, cell-based; settings: Homo sapiens
HEK293 [10] = test: cells; assay type: functional, cell-based; settings: Homo sapiens; remark: listed apart in the source
[11] = target: Nucleotide-binding oligomerization domain-containing protein 2 (Homo sapiens, UniProt Q9HC29); test: inhibition of NOD2-driven NF-kB reporter – cell-based, luminescence, uHTS, HEK293 (AID 1566); assay type: functional
Nucleotide-binding oligomerization domain-containing protein 2, sequence (Q9HC29 whole entry, the tested form may be a part): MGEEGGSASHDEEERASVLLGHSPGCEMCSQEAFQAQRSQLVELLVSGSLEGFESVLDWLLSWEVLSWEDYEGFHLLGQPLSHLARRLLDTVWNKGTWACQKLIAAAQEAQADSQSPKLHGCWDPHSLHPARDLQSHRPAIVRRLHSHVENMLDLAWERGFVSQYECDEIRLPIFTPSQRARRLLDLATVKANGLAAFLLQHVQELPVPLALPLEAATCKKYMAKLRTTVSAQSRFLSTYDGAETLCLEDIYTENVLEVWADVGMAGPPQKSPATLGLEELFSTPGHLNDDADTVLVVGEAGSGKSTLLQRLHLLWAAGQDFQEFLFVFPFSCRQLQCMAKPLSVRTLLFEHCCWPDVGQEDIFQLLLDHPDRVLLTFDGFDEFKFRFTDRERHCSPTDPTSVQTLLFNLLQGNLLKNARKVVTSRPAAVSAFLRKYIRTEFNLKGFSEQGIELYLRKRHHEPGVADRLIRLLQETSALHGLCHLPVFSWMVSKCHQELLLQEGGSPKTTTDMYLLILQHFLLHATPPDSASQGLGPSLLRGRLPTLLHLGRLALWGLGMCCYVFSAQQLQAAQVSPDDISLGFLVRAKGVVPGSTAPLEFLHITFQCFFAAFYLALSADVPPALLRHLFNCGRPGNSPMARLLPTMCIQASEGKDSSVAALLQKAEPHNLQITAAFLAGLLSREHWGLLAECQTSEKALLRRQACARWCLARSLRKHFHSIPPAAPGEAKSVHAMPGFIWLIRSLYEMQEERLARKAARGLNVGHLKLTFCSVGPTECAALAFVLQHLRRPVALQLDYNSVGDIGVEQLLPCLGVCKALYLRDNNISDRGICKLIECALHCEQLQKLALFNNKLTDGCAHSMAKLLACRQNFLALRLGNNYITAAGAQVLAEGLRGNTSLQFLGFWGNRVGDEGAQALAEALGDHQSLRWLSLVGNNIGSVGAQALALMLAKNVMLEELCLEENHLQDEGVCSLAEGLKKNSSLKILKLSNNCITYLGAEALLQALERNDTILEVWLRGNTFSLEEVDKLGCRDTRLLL

HEK293 [12] = test: NOD2 signaling inhibitors in MDP-stimulated cells, cell-based, uHTS, luminescence (AID 2001); assay type: functional; settings: Homo sapiens
HEK293 [13] = test: cells; assay type: functional, cell-based; settings: Homo sapiens; remark: listed apart in the source
[14] = target: Neurotensin receptor type 1 (Homo sapiens, UniProt P30989); assay type: functional;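 also: Image-based confirmatory dose-response assay measuring agonist activity at NTR1; NTR1-expressing U2OS osteosarcoma cells imaged for beta-arrestin GFP spot formation; agonist potency where compounds increase beta-arrestin recruitment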
[15] = reduction of Shn3 3'UTR-driven luciferase in osteoblasts – cell-based, Clone20 osteoblasts, firefly luciferase, cherry-picked, dose response (AID 624132); assay type: functional;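 also: firefly luciferase luminescence from reporter carrying the Shn3 3'UTR in osteoblasts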
[16] = loss of viability in HepG2 cells – cell-based, CellTiter-Glo, cherry-picked, cytotoxicity control for Shn3 inhibitor project, dose response (AID 624134); assay type: functional
[17] = non-specific 3'UTR reporter inhibition in Clone20-Shn3RL – cell-based, Renilla luciferase, cherry-picked, counter-screen for Shn3 inhibitor project, dose response (AID 624133); assay type: functional
[18] = A549 cell cytotoxicity, dose response, cytotoxicity control, plate reader, cherry-pick, antagonist series (AID 743412); assay type: functional, cell-based
[19] = toxicity toward HepG2 liver cells – cell-based, plate reader, cherry-pick, antagonist series, cytotoxicity control, dose response (AID 743416); assay type: functional
[20] = blockers of bursicon-stimulated LGR2 cAMP reporter – cell-based, HEK293, CRE-luciferase reporter, cherry pick, set 2, dose response (AID 743343); assay type: functional;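 also: transfected cells were stimulated with diluted bursicon conditioned medium after compound addition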
[21] = target: 1-phosphatidylinositol 4,5-bisphosphate phosphodiesterase gamma-1 (Homo sapiens, UniProt P19174); test: Counterscreen for inhibitors of phospholipase C isozymes (PLC-B3): Fluorescence-based biochemical high throughput dose response assay to identify inhibitors of phospholipase C isozymes (PLC-gamma1).
1-phosphatidylinositol 4,5-bisphosphate phosphodiesterase gamma-1, sequence (P19174 whole entry): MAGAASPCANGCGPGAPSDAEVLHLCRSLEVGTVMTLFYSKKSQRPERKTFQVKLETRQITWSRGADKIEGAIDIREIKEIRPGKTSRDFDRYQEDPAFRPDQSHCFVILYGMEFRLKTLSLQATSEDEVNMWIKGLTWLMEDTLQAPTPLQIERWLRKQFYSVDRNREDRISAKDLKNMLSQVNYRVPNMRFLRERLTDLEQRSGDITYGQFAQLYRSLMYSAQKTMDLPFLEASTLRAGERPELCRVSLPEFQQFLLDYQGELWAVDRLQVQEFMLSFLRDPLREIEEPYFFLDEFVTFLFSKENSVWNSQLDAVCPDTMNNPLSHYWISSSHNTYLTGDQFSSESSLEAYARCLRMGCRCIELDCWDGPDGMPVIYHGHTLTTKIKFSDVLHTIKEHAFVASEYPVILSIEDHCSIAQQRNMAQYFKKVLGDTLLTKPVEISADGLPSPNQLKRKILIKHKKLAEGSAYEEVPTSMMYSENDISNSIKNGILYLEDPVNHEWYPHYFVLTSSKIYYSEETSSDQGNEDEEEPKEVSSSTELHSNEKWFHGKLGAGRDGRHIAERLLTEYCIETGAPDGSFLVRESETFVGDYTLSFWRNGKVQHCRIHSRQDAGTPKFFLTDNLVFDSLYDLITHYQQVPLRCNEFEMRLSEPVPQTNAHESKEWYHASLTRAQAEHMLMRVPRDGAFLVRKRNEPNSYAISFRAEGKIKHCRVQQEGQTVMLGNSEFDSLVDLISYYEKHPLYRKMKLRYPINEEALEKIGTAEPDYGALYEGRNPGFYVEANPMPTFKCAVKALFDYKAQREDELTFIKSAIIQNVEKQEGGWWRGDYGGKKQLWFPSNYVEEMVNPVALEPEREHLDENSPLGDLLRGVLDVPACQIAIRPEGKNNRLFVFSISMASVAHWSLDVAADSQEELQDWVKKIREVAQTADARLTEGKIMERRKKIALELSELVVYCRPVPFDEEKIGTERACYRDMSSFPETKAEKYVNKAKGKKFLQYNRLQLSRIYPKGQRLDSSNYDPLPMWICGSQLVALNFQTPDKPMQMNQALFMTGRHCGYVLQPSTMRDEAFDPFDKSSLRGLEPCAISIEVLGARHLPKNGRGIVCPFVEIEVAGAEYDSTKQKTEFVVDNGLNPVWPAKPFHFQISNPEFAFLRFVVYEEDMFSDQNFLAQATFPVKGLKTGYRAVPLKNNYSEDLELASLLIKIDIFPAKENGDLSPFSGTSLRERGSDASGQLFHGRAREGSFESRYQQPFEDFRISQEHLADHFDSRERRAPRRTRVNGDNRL

[22] = blockade of melanocortin 4 receptor signaling – cell-based, plate reader, cherry pick, counter-screen for LGR2 antagonist project, dose response (AID 743444); assay type: functional;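 also: transfected HEK 293 cells stimulated with alpha-MSH peptide; potency of inhibitors of the alpha-MSH evoked signal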
[23] = target: 1-phosphatidylinositol 4,5-bisphosphate phosphodiesterase beta-3 (Homo sapiens, UniProt Q01970); test: Fluorescence-based biochemical high throughput dose response assay to identify inhibitors of phospholipase C isozymes (PLC-B3).
1-phosphatidylinositol 4,5-bisphosphate phosphodiesterase beta-3, sequence (Q01970 whole entry): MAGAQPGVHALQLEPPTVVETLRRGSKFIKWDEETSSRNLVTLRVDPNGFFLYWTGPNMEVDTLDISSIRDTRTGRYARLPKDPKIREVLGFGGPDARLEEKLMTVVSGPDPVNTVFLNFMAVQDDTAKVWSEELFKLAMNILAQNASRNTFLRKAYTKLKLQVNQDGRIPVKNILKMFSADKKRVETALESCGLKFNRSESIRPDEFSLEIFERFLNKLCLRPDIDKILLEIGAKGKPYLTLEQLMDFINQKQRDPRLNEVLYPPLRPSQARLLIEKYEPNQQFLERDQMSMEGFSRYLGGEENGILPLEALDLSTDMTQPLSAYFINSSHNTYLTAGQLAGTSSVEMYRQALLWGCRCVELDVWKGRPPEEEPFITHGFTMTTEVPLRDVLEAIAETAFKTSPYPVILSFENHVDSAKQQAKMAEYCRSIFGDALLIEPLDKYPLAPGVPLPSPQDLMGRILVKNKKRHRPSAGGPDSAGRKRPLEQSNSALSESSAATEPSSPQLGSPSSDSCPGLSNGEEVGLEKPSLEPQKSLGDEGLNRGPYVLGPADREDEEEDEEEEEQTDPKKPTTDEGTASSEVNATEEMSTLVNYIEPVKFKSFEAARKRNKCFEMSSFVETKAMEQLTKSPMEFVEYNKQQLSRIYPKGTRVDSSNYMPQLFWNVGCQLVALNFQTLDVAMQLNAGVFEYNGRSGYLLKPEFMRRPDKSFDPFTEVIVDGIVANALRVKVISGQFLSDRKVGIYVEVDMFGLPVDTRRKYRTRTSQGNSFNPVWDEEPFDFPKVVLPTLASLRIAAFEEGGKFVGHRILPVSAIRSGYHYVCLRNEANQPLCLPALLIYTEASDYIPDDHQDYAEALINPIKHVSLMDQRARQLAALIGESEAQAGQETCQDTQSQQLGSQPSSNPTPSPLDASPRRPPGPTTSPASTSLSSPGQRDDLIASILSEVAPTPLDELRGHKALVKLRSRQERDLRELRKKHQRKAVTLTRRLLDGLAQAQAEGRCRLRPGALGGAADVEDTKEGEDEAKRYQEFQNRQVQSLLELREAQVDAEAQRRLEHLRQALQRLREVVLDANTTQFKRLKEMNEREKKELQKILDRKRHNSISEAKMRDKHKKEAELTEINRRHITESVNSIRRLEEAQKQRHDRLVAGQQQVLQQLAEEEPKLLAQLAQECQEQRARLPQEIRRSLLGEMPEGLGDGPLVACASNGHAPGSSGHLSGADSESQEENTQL

[24] = viability loss in HEK293 cells – cell-based, plate reader, cherry-picked samples, cytotoxicity control, dose response (AID 743446); assay type: functional
[25] = target: Luciferin 4-monooxygenase (Photinus pyralis, UniProt P08659); test: inhibition of purified Photinus pyralis luciferase – biochemical, luminescence, dose response (AID 1891)
[26] = Luminescence Cell-Based Dose Confirmation HTS to Identify Inhibitors of Platelet Dense Granule Release. [Related pubchem assays: 1663 (Primary HTS), 1678 (Summary of Project)]; assay type: functional
[27] = microbe, parasite or virus in culture; assay type: functional; settings: Mycobacterium tuberculosis
[28] = THP-1 cell cytotoxicity, dose response, cytotoxicity control for non-replicating M. tuberculosis project (AID 489025); assay type: functional
[29] = Vero E6 cell cytotoxicity, dose response, cytotoxicity control for non-replicating M. tuberculosis project, secondary assay (AID 492998); assay type: functional, VeroE6; settings: Vero C1008
cells = assay type: functional
[30] = bead-based luminescence quenchers, dual-tagged ARNT – biochemical, AlphaScreen, cherry-pick, artefact control for ARNT-TACC3 interaction inhibitor project, dose response (AID 651705); assay type: functional;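 also: AlphaScreen bead proximity signal that flags compounds interfering with the detection technology; potency reflects signal decrease which marks the compound as an assay artifact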
[31] = inhibition of ARNT PAS-B/TACC3 complex formation – biochemical, AlphaScreen, cherry-picked samples, confirmation (AID 651703); assay type: functional, Homo sapiens;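 also: His-tagged ARNT PAS-B domain paired with GST-TACC3 E629A dimer coactivator fragment; potency of inhibitors that break up the complex and lower AlphaScreen signal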
[32] = IC50 of Artemis nuclease activity blockers – biochemical, fluorescence intensity, dose response (AID 720701); assay type: functional;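 also: Artemis endonuclease enzyme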
Vero [33] = test: mammalian cell viability reduction – secondary assay, cytotoxicity control for West Nile virus antiviral project, dose response (AID 1650); assay type: functional; settings: Chlorocebus sabaeus
Vero [34] = test: inhibition of WNV-induced cytopathic effect – cell-based, CPE readout (AID 1621); assay type: functional; settings: Chlorocebus sabaeus
[35] = target: NAD-dependent protein deacylase sirtuin-5, mitochondrial (Homo sapiens, UniProt Q9NXA8); test: sirtuin-5 deacylation blockers, concentration series – biochemical, fluorescence imaging, cherry-pick, set 5, dose response (AID 720591);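 also: desuccinylation of succinyl peptide AMC substrate read as fluorescence after trypsin release; potency of inhibitors that lower fluorescence and may act on trypsin instead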

Mannose-6-phosphate isomerase, sequence (P34949 whole entry): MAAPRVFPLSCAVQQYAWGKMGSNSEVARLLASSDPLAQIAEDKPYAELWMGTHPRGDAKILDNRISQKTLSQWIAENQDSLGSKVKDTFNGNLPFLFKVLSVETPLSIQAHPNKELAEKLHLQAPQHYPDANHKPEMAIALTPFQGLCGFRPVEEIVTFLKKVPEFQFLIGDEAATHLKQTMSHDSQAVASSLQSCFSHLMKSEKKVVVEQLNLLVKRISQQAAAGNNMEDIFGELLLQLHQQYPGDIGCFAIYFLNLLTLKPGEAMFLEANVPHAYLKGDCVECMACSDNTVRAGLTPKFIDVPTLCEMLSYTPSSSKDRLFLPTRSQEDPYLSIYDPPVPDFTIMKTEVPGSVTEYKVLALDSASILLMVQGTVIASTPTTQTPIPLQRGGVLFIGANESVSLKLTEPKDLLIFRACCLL

With `FC(F)Oc1cccc(NC(=S)N2CCN(c3ccccn3)CC2)c1` the IC50 [1] was > 50 µM (not active).
For `O=C(NCC1CCCN(Cc2cccc(C(F)(F)F)c2)C1)c1ccc(F)cc1` (centres undefined), the EC50 [2] was 0.112 µM (active), the EC50 [3] was > 195 µM (not active) and the EC50 [4] was > 60 µM (inconclusive).
In the case of `CC(C)c1cc(C(=O)O)c2cnn(C(C)C)c2n1`, the IC50 [5] is reported as > 109 µM (inactive) and the IC50 [6] is reported as > 83.2 µM (inactive).
With `CC(C)c1onc(C(=O)N2CCN(Cc3ccccc3)CC2)c1[N+](=O)[O-]` the IC50 [7] was 1.5 µM (active).
With `Cc1cc(C)n(CNc2nc(C(F)(F)F)cs2)n1` the IC50 (Ephrin type-A receptor 4) was > 100 µM (not active).
In the case of `CN(C(=O)COc1ccccc1C(=O)NCCOc1ccccc1)c1ccccc1`, the EC50 (HEK293 [8]) is reported as 5.76 µM (active), the IC50 (HEK293 [9]) is reported as 3.82 µM (active) and the IC50 (HEK293 [10]) is reported as 11.2 µM (active). The EC50 [11] was 7.78 µM (active), the IC50 (HEK293 [12]) was 4.32 µM (active) and the IC50 (HEK293 [13]) was 3.42 µM (active). For the same molecule, the EC50 [14] was 17.9 µM (active), the AC50 [15] was 1.57 µM (active) and the AC50 [16] was 51.9 µM (active). For the same molecule, the AC50 [17] was 4.23 µM (active), the AC50 [18] was 20.8 µM (active) and the AC50 [19] was 32.7 µM (active). For the same molecule, the AC50 [20] was 12.8 µM (active), the IC50 [21] was > 122 µM (inactive) and the AC50 [22] was 11.2 µM (active). The IC50 [23] was > 122 µM (inactive) and the AC50 [24] was 15.9 µM (active).
In the case of `c1ccc(-c2nc3c(ccc4ccccc43)[nH]2)nc1`, the EC50 [25] is reported as 4.22 µM (active), the EC50 [26] is reported as 27.1 µM (active) and the CC50 [27] is reported as > 40 µM (active). The CC50 [28] was 38.9 µM (active), the CC50 [29] was > 20 µM (active) and the IC50 (cells) was 18.9 µM (active). The AC50 [30] was 119 µM (active), the AC50 [31] was 79 µM (active) and the IC50 [32] was 14.4 µM (active).
In the case of `CN1CCc2ccccc2C1Cc1ccccc1NC(=O)c1sc2ccccc2c1Cl` (centres undefined), the CC50 (Vero [33]) is reported as > 100 µM (active), the EC50 [2] is reported as 2.73 µM (active) and the EC50 [4] is reported as > 60 µM (not active). The IC50 (Vero [34]) was 41.2 µM (active).
With `CCn1ccnc1CN(C)C(=O)CC1C(=O)NCCN1Cc1c(F)cccc1Cl` (centres undefined) the AC50 [35] was > 30 µM (inactive).
